Measured values: EP4653451A1, “POLYPEPTIDE COMPOUND AND USE THEREOF” (Chengdu New Radiomedicine Technology Co., Ltd., priority 2023, dated 2024)
Where a name gives a salt, the structure may show the parent alone. Blank lines part the entries; values can stand above or below the compound they belong to.

Tests used:
[1] = target: T1, human recombinant DPP4 protein (Homo sapiens, UniProt P27487); test: Inhibitory activity against DPP4 protease activity (H-Gly-Pro-AMC fluorescence); type: biochemical; settings: 125 pM DPP4 working solution, 90 min at room temperature
T1 construct: purchased Acrobiosystems DP4-H5211
Procedure, shortened: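 125 pM DPP4 working solution and 250 µM H-Gly-Pro-AMC working solution (stock levels, not final) in 20 mM Tris-HCl, 100 mM NaCl, mixed with compound in 4-fold dilution series. Reaction 90 min at room temperature in the dark; AMC fluorescence read at ex 380/em 460 nm, IC50 fitted from the concentration series.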

[2] = target: T2, human recombinant PREP protein (Homo sapiens, UniProt P48147); test: Inhibitory activity against PREP protease activity, reported as PREP/FAP IC50 ratio; type: biochemical; settings: ratio of PREP IC50 to FAP IC50
T2 construct: purchased R&D systems 4308-SE-010
T2 sequence (P48147 1-710): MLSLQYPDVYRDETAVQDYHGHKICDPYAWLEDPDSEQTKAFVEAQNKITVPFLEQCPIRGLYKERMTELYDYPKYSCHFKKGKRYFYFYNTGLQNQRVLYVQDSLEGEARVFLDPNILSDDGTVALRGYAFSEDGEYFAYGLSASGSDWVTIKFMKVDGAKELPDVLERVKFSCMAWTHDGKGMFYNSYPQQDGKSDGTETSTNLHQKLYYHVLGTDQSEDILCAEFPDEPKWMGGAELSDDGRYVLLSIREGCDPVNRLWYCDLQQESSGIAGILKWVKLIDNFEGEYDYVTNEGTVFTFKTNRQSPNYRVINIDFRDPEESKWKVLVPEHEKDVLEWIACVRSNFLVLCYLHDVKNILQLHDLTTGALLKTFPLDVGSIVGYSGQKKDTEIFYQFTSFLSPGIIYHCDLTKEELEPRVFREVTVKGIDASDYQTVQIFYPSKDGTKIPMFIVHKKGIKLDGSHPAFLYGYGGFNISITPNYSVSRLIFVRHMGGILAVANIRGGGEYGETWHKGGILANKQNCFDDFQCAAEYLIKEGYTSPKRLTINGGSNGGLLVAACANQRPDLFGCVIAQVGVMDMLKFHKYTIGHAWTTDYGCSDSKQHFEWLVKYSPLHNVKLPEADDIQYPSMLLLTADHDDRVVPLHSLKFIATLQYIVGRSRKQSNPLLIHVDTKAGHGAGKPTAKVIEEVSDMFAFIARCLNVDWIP
Experimental: The human recombinant PREP protein (R&D systems, 4308-SE-010) was formulated into a 125 pM working solution with a assay buffer (25 mM Tris-HCl, 250 mM NaCl, 2.5 mM DTT, 1 mg/mL BSA), and the PREP substrate (Z-Gly-Pro-AMC (LEONBIO, 68542-93-8)) was diluted to a 125 µM PREP substrate working solution with the assay buffer. 40 µl of PREP working solution and 20 µl of compounds at different concentrations (4-fold dilution) were taken, then 40 µl of PREP substrate working solution was added, and the mixture was uniformly mixed on a shaker at room temperature for 1 min. The uniformly mixed mixture was reacted at room temperature in the dark for 90 min. Reading was made by microplate reader at excitation and emission wavelengths of 380 nm and 460 nm. The original data was saved, and the IC50 value of the compound was obtained by analyzing the data with Graphpad PRISM.

[3] = target: T3, human recombinant FAP protein (Homo sapiens, UniProt Q12884); test: Inhibitory activity against FAP protease activity (Z-Gly-Pro-AMC fluorescence); type: biochemical; settings: 125 pM FAP working solution, 90 min at room temperature; read-out: FAP IC50
T3 construct: purchased Acrobiosystems FAP-H82Q6
T3 sequence (Q12884 1-760): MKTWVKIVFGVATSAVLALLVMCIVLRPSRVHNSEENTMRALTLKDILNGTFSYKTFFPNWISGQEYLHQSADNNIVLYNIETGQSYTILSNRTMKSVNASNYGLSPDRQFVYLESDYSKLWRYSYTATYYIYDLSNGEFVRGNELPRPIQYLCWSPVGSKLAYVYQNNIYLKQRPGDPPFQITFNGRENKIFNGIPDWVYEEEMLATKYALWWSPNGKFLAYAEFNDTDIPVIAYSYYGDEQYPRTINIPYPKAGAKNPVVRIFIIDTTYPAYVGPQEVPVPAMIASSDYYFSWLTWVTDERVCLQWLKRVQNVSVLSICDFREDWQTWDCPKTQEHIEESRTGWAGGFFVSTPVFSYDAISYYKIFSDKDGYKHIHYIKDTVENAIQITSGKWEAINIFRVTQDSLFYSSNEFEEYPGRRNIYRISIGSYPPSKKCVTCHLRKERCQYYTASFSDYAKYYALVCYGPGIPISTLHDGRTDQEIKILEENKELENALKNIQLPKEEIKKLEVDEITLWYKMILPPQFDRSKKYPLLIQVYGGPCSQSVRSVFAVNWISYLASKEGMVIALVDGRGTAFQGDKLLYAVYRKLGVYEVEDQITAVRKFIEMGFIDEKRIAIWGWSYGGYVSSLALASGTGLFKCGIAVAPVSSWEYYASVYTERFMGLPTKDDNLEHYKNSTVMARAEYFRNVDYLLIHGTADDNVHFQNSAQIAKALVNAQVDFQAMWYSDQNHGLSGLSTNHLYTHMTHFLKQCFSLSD
Procedure, shortened: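 Working solutions of 125 pM recombinant human FAP and 150 µM Z-Gly-Pro-AMC, in pH 7.5 Tris buffer with 1 M NaCl and 1 mg/mL BSA, combined with 4-fold compound dilutions and reacted 90 min at room temperature in the dark. AMC fluorescence (Ex 380/Em 460 nm) used to fit IC50.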

in vitro = settings: CD-1, mouse, plasma
Experimental: The plasma stability experiment was performed using plasma from CD-1 mice. The compounds were diluted to a concentration of 1 mM with methanol. To 0.792 mL of plasma, 8.00 µL of 1 mM of each test compound was added, and 50.0 µL of the plasma sample was taken after uniform mixing. The remaining sample was placed in a 37°C water bath and incubated for 24 h. […] After centrifugation, the sample was diluted 1-fold with 0.2% trifluoroacetic acid and analyzed by LC-MS/MS.

T1 sequence (P27487 whole entry): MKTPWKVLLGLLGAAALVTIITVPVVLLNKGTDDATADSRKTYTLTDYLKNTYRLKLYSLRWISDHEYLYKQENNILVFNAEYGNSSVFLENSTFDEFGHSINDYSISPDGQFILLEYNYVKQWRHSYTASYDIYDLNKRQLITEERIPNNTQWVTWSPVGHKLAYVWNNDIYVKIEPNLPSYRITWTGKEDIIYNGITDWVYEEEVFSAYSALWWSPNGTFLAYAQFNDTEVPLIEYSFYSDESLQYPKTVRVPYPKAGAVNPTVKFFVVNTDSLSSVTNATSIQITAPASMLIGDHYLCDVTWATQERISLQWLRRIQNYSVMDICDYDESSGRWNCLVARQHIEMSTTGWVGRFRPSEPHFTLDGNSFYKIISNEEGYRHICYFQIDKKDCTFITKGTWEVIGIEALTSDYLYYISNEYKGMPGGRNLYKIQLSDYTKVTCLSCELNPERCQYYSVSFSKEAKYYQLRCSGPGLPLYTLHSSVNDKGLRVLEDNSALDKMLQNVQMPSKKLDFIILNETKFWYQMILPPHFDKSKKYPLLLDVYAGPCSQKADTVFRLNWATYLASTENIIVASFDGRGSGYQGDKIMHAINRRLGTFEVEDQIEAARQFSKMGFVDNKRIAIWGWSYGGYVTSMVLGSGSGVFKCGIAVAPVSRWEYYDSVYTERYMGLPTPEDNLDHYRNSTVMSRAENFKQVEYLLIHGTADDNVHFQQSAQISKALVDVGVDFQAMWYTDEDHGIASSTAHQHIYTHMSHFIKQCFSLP

Compound: CCCCCC(=O)N[C@H]1CSCc2cc(CSCCNC(=O)CN3CCN(CC(=O)O)CCN(CC(=O)O)CCN(CC(=O)O)CC3)cc(c2)CSC[C@@H](CC(=O)O)NC(=O)[C@H](Cc2ccccc2C(F)(F)F)NC(=O)[C@H](CCC(N)=O)NC(=O)[C@H]([C@@H](C)O)NC(=O)[C@@H]2CCCN2C(=O)[C@@H]2CCCN2C1=O [Compound 12, Hex-Cys-Pro-Pro-Thr-Gln- Phe(2-CF3)-beta-HomoCys (Cys bridge TBMB (DOTA-AET)) trifluoroacetate]
- IC50 [1]: > 10000 nM
- PREP/FAP [2]: A (A > 10000)
- IC50 [3]: 0.46 nM
- remaining at 24 h, 10 µM (in vitro): 94%

Compound: Hex-Cys-Pro-Pro-Thr-Gln-Phe-Cys-CH2NH-cyclopentacarboxylic acid (Cys bridge TBMB (DOTA-AET)) trifluoroacetate [Compound 14]
- PREP/FAP [2]: B (10000 > B > 3300)

Compound: Hex-Cys-Pro-Pro-Thr-Gln-Phe-Cys-CH2NHAc (Cys bridge TBMB (DOTA-AET)) trifluoroacetate [Compound 10]
- PREP/FAP [2]: A (A > 10000)

Next, values leading:

- IC50 [1]: > 10000 nM
- PREP/FAP [2]: B (10000 > B > 3300)
- IC50 [3]: 0.67 nM
- remaining at 24 h, 10 µM (in vitro): 93%
Compound: CCCCCC(=O)N[C@H]1CSCc2cccc(c2F)CSC[C@@H](CNC(=O)C[C@H]2CC[C@H](NC(=O)CCNC(=O)CN3CCN(CC(=O)O)CCN(CC(=O)O)CCN(CC(=O)O)CC3)CC2)NC(=O)[C@H](Cc2ccccc2)NC(=O)[C@H](CCC(N)=O)NC(=O)[C@H]([C@@H](C)O)NC(=O)[C@@H]2CCCN2C(=O)[C@@H]2CCCN2C1=O [Compound 15, Hex-Cys-Pro-Pro-Thr-Gln-Phe-Cys-CH2NH-(trans-4-aminocyclohexane acetic acid-betaAla-DOTA) (Cys bridge 2,6-bis(bromomethyl)fluorobenzene) trifluoroacetate]

- IC50 [1]: > 10000 nM
- PREP/FAP [2]: B (10000 > B > 3300)
- IC50 [3]: 0.41 nM
- remaining at 24 h, 10 µM (in vitro): 96%
Compound: CCCCCC(=O)N[C@H]1CSCc2cccc(c2F)CSC[C@@H](CNC(=O)C[C@@H](C)NC(=O)[C@H]2CC[C@H](CNC(=O)CN3CCN(CC(=O)O)CCN(CC(=O)O)CCN(CC(=O)O)CC3)CC2)NC(=O)[C@H](Cc2ccccc2)NC(=O)[C@H](CCC(N)=O)NC(=O)[C@H]([C@@H](C)O)NC(=O)[C@@H]2CCCN2C(=O)[C@@H]2CCCN2C1=O [Compound 16, Hex-Cys-Pro-Pro-Thr-Gln-Phe-Cys-CH2NH-(D-beta-HomoAla-tranexamic acid-DOTA) (Cys bridge 2,6-bis(bromomethyl)fluorobenzene) trifluoroacetate]
